Like-named read-outs stand apart in the source and are kept apart here.

Consider eight compounds from paper PMC13316224, “Expansion, functional diversification, and gene fusion events in the Ato protein family” (iScience, 2026).

Format in all cases: cell-based
Experiment [1] concerns the target T1, CaAto1 (Ato1-GFP) (Candida albicans, UniProt A0A1D8PHP8).
T1 construct: gene FRP3; full length with C-terminal GFP at both native loci, in C. albicans cells (ATO1-GFP/ATO1-GFP)
The experiment is described as follows: competition of […]acetate uptake in cells. The following applies: 0.1 mM [14C]acetate, 10 mM competitor, pH 6.0, 30 °C, collective statement for most carboxylates, estimated from one concentration.

Experiment [2] concerns the target T1, CaAto1 (Ato1-GFP). Kind of experiment: […]lactate uptake in cells, against ato1 deletion strain. The following applies: pH 6.0, 30 °C, 1-24 mM; H+ symport; labelled compound.
For experiment [3], the target named is T1, CaAto1 (Ato1-GFP). Kind of experiment: competition of […]acetate uptake in cells. The following applies: read-out: % inhibition at 10 mM.

T1 sequence (A0A1D8PHP8 entry or part of it): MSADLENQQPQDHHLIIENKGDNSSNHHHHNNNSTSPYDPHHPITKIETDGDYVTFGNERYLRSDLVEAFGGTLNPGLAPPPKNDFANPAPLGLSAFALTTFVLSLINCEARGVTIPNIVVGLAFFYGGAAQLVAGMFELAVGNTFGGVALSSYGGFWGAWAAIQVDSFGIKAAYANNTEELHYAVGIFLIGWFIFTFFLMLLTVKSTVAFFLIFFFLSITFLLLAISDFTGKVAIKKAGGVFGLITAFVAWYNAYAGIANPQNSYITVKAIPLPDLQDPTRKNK

One may read the Ki as a measure of affinity in units of concentration, obtained from inhibition or displacement. For the compound `O=C(O)CC(O)(CC(=O)O)C(=O)O` [citrate], the Ki at CaAto1 (Ato1-GFP) [1] was over 10 mM.

Turning to `O=C(O)C[C@H](O)C(=O)O` [malate], the Ki on CaAto1 (Ato1-GFP) [1] was over 10 mM.

For `C[C@H](O)C(=O)O` [[14C]lactate], the “[14C]lactate uptake in cells, against ato1 deletion strain” value on CaAto1 (Ato1-GFP) [2] is given as “practically no lactate uptake was recorded in ato1Δ/Δ or ato1-10Δ/Δ strains”.

By inhibition is commonly meant the change of the read-out against control, counted positive when it falls. `CCCC(=O)O` [butyrate]: the inhibition at 10000 µM on CaAto1 (Ato1-GFP) [3] is about 50%.

Turning to `CC(=O)C(=O)O` [pyruvate], at CaAto1 (Ato1-GFP) [1] (read-out: Ki), the Ki is over 10 mM.

Turning to `C[C@H](O)C(=O)O` [lactate], the Ki on CaAto1 (Ato1-GFP) [1] (read-out: Ki) is over 10 mM.

As to `O=CO` [formate], the Ki on CaAto1 (Ato1-GFP) [1] is over 10 mM.

Consider `O=C(O)CCC(=O)O` [succinate], for which the Ki at CaAto1 (Ato1-GFP) [1] was over 10 mM.
